Results as given in patent US9333194B2, “Use of ansamycin antibiotics and method of screening novel angiogenesis inhibitor” (Japan Science & Technology Agency, priority 2002, dated 2016).

Tested on: human retinal microvascular endothelial cells
Test: Angiogenesis-inhibiting signals (mRNA quantification by real-time quantitative PCR)
Assay type: cell-based
Details: various concentrations; for angiogenesis-inhibiting signals (changes of gene expression levels): four hours incubation, FIG. 6; for mRNA amount of c-myc, integrin-αv, integrin-β3: FIG. 6 legend
Protocol: Human retinal microvascular endothelial cells were rendered to grow exponentially in the presence of serum/growth factors/angiogenesis-promoting factors, and various concentrations of rifampicin, rifamycin SV and 3-formyl rifamycin were added. After four hours-incubation, RNA was extracted and subjected to mRNA quantification of various genes using aforementioned LightCycler-based highly sensitive real-time quantitative PCR. A, B and C represent the quantification results of c-myc gene; D, E and F represent those of integrin-αv gene; G, H and I represent those of integrin-β3 gene. Further, A, D and G indicate the changes of mRNA levels after adding rifampicin; B, E and H indicate those after adding rifamycin SV; C, F and I indicate those after adding 3-formyl rifamycin.

Structure (SMILES)	angiogenesis-inhibiting signals (changes of gene expression levels)	mRNA amount of c-myc, integrin-αv, integrin-β3
CO[C@H]1/C=C/O[C@@]2(C)Oc3c(C)c([O-])c4c(O)c(cc(O)c4c3C2=O)NC(=O)/C(C)=C\C=C\[C@H](C)[C@H](O)[C@@H](C)[C@@H](O)[C@@H](C)[C@H](OC(C)=O)[C@@H]1C.[Na+] [rifamycin SV]	exhibit similar activity potently	inhibited in a concentration-dependent manner
CO[C@H]1/C=C/O[C@@]2(C)Oc3c(C)c(O)c4c(O)c(c(C=O)c(O)c4c3C2=O)NC(=O)/C(C)=C\C=C\[C@H](C)[C@H](O)[C@@H](C)[C@@H](O)[C@@H](C)[C@H](OC(C)=O)[C@@H]1C [3-formyl rifamycin]	exhibit similar activity potently	inhibited in a concentration-dependent manner
